Numbering of substitutions follows the chain as printed.
Legend:
tMS^ΔN35Hcy (tMS^Hcy) = target: T1, tMS^ΔN35Hcy (tMS^Hcy) (Thermus thermophilus, UniProt Q5SKM5); assay: UV-Vis methylcobalamin consumption; format: biochemical; settings: 100 µM homocysteine; 20 µM free MeCbl; 2 µM enzyme; pH 7.4, 0.5 mM TCEP, 50 °C
T1 construct: gene TTHA0618; isolated Hcy domain lacking N-terminal 35 residues; N-terminal His6-TEV tag, no cut described; E. coli BL21star(DE3)
T1 sequence (Q5SKM5 36-340 limits assumed): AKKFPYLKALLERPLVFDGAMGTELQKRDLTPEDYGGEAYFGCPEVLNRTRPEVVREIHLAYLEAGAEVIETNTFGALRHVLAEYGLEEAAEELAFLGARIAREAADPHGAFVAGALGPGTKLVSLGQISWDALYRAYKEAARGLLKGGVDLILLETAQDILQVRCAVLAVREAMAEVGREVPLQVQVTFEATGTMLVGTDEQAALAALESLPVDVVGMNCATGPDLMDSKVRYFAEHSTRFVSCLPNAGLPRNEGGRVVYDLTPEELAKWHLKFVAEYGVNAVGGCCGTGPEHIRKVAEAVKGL

tMS^HcyFolCapCob [1] = target: T2, tMS^HcyFolCapCob (Thermus thermophilus, UniProt Q5SKM5, F110A/E123A/E124A/Y296A/D651A/P652A/G653A); assay: X-ray crystal structure, […] Å; format: binding; settings: pre-Hcy-on, prCbl holoenzyme, mutant 1
T2 construct: gene TTHA0618; Hcy-Fol-Cap-Cob tetradomain, lacks Act domain; N-terminal His6 tag cut with TEV; about 95 kDa monomer; E. coli BL21star(DE3)
T2 sequence (Q5SKM5 1-877 F110A/E123A/E124A/Y296A/D651A/P652A/G653A): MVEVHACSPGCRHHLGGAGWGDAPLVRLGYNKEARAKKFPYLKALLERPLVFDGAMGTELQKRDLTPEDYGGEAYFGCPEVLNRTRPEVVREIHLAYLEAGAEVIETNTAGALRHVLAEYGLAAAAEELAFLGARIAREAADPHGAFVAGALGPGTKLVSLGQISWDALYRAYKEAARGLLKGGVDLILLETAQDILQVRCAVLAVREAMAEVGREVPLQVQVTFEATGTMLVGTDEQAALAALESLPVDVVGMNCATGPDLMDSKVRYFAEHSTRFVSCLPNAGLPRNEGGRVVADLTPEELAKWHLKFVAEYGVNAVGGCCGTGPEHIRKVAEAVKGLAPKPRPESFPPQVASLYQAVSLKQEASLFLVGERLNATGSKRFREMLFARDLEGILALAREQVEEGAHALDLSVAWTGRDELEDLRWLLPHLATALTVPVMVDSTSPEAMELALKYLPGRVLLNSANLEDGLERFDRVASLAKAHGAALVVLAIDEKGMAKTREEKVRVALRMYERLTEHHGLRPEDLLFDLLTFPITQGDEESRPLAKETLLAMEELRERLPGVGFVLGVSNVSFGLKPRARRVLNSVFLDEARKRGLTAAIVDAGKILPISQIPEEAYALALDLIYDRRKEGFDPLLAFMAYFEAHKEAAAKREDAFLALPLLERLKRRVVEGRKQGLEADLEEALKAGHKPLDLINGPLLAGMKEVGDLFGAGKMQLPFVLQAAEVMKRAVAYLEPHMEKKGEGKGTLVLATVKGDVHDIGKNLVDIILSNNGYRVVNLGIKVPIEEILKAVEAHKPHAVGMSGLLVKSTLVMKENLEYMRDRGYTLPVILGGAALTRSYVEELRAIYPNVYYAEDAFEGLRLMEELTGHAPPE

tMS^HcyFol = target: T3, tMS^HcyFol (Thermus thermophilus, UniProt Q5SKM5); assay: UV-Vis methylcobalamin consumption; format: biochemical; settings: 100 µM homocysteine; 23 µM CapCob-bound MeCbl or 20 µM free MeCbl; 2 µM enzyme; pH 7.4, 0.5 mM TCEP, 50 °C
T3 construct: gene TTHA0618; Hcy-Fol didomain; N-terminal His6-TEV tag, no cut described; E. coli BL21star(DE3)
T3 sequence (Q5SKM5 1-640 limits assumed): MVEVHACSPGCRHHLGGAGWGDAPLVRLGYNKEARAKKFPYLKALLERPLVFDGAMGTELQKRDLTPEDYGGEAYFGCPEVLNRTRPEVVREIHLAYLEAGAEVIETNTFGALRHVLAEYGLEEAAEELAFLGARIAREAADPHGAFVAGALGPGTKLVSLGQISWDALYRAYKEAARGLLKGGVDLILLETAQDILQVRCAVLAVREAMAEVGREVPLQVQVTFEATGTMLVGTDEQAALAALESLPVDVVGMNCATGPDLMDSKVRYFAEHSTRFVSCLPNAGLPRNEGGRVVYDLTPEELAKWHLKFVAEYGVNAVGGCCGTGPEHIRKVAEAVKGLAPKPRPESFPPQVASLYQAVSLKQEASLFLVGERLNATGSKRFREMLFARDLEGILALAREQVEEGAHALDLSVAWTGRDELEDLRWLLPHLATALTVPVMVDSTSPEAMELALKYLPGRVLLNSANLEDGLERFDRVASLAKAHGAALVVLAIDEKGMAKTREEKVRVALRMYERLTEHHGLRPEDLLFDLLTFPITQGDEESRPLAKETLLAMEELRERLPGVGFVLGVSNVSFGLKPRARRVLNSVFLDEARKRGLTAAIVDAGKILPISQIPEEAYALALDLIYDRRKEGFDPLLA

tMS^HcyFolCapCob [2] = target: T4, tMS^HcyFolCapCob (Thermus thermophilus, UniProt Q5SKM5, F110A/E123A/E124A/R268A/D651A/P652A/G653A/D759A/N774H/R826A); assay: X-ray crystal structure, […] Å; format: binding; settings: Hcy-on; aeCbl holoenzyme; co-purified; Fol domain; mutant 2
T4 construct: gene TTHA0618; Hcy-Fol-Cap-Cob tetradomain, lacks Act domain; N-terminal His6 tag cut with TEV; about 95 kDa monomer; E. coli BL21star(DE3)
T4 sequence (Q5SKM5 1-877 F110A/E123A/E124A/R268A/D651A/P652A/G653A/D759A/N774H/R826A): T2 sequence (Q5SKM5 1-877 F110A/E123A/E124A/Y296A/D651A/P652A/G653A) with R268A, A296Y, D759A, N774H, R826A

Compound | UV-Vis methylcobalamin consumption (tMS^ΔN35Hcy (tMS^Hcy)) | X-ray crystal structure, 2.45 Å (tMS^HcyFolCapCob [1]; Hcy domain site) | UV-Vis methylcobalamin consumption (tMS^HcyFol) | X-ray crystal structure, 2.38 Å (tMS^HcyFolCapCob [2]) | X-ray crystal structure, 2.45 Å (tMS^HcyFolCapCob [1]; co-purified, Fol domain)
N[C@@H](CCS)C(=O)O [homocysteine] | Consumption of exogenous methylcobalamin was detected in the presence of both tMS ^HcyFol and tMS^Hcy | HCY was found bound in the pre-Hcy-on structure (9CBP) | consumption of methylcobalamin when bound to tMS^CapCob was observed with tMS^HcyFol | – | –
Nc1nc2c(c(=O)[nH]1)N[C@@H](CNc1ccc(C(=O)N[C@@H](CCC(=O)O)C(=O)O)cc1)CN2 [tetrahydrofolate] | – | – | – | pre-Hcy-on (Cap-on, 9CBP) and Hcy-on (9CBR) states copurified with the folate demethylation byproduct | tetradomain did yield a folate-bound structure, modelled as tetrahydrofolate (Ligand ID THG)

— article doi:10.1101/2024.08.29.610163v8, “Structural Snapshots of B12-Dependent Methionine Synthase’s Catalytic Conformations” (biorxiv, 2026)
